In PMC8626775, “Anti-schistosomal activities of quinoxaline-containing compounds: From hit identification to lead optimisation” (European Journal of Medicinal Chemistry, 2021):
Several values for one entry are separate records, joined by “and”; a condition that tells them apart may be missing. Identical values can stand only once. Like-named read-outs stand apart in the source and are kept apart here.

What was measured:
[1] = tested on: Juvenile S. mansoni worms; assay: S. mansoni juvenile worm screen (motility score, propidium iodide uptake), 72 h; type: cell-based, Schistosoma mansoni; conditions: juvenile worms, positive controls at 15 μM, Fig. S4
Text: (§1) Mice (Mus musculus HsdOLa:TO - Tuck Ordinary; Envigo, UK) were used for the mammalian-specific propagation of the S. mansoni life cycle. Experimental animals were infected with 4000 or 180 S. mansoni cercariae/mouse and perfused three- or seven-weeks post-infection to obtain S. mansoni juvenile or adult worms, respectively. Preparation steps following perfusion have been described previously. Briefly, the parasite material was washed three times with pre-warmed adult worm media (DMEM (Gibco, Paisley, UK) supplemented with 10% (v/v) Fetal Calf Serum (FCS, Gibco, Paisley, UK), 1% (v/v) L-glutamine (Gibco, Paisley, UK) and an antibiotic mixture (150 Units/ml penicillin and 150 μg/ml streptomycin; Gibco, UK)) to remove residual host contamination and incubated in a humidified environment containing 5% CO2 at 37 °C for at least 1 h.
Juvenile worms were distributed in a 96-well tissue culture plate (n = 20–25 individuals/well) containing 200 μl/well. Compounds were added to each treatment well at a concentration range of 10–0.156 μM. Negative (1.25% DMSO) and positive (15 μM PZQ and 15 μM AUR in 1.25% DMSO) controls were also included in each drug screen. Treated juvenile worms were incubated for 72 h in a humidified environment containing 5% CO2 at 37 °C. Compound-induced phenotype and motility effects were quantified using an adapted version of the WHO-TDR scoring system (in summary: 0 = dead, 1 = movement of the suckers only and slight contraction of the body, 2 = movement at the anterior and posterior regions only, 3 = full body movement but sluggish and 4 = normal movement). Additionally, differential uptake of propidium iodide (PI, P1304MP, Sigma-Aldrich, UK) was used to quantify worm viability as previously described. In brief, after 15 min incubation with 2 μg/ml PI, the parasite cultures were imaged under both bright-field and fluorescent settings (PI detection, 562 and 624 excitation and emission wavelengths, respectively) using an ImageXpressXL high content imager (Molecular Devices, UK). Enumeration of PI positive and negative juvenile worms was manually performed across all parasites within the well and the percentage of PI positive parasite was calculated per well.

HepG2 cells = assay: HepG2 MTT cytotoxicity assay; conditions: for CC50: Table 2, MTT; for Selectivity Index (SI) Adult worms: HepG2 CC50 versus adult worm EC50; for Selectivity Index (SI) Somula: HepG2 CC50 versus schistosomula EC50
Protocol: (§2) Initially the cells were handled under sterile conditions and grown at 37 °C in a humidified atmosphere containing 5% CO2. Cytotoxicity was evaluated by way of a 3-(4, 5- dimethylthiazol-2-yl)-2,5-diphenyl tetrazolium bromide (MTT) assay as previously described. The cells were counted in a dual chamber counting slide using the BIORAD TC-10 Automated cell counter, seeded in a 96-well plate (Fisher Scientific, Loughborough, UK) at a density of 2 × 10^4 cells/well and incubated in an atmosphere of 5% CO2 at 37 °C. […] The absorbance readings (at 570 nm) of the soluble formazan crystals were recorded using PolarStar Omega plate reader (BMG-Labtech). […] The latter was used to calculate the selectivity index (SI) of the compounds presented herein.

S. mansoni schistosomula = S. mansoni schistosomula high-throughput phenotype and motility screen (Roboworm), 72 h; type: cell-based, Schistosoma mansoni
How it was run: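 Newly transformed schistosomula (S. mansoni PR-1, mechanically transformed cercariae), 120 per well, exposed to compounds at a single concentration or two-fold titrations for 72 h at 37 °C, 5% CO2.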

S. mansoni adult worms [2] = assay: S. mansoni adult worm motility screen (WormassayGP2), 72 h; type: cell-based, Schistosoma mansoni; conditions: for EC50: Schistosoma mansoni
Text: as §1
(§3) For the evaluation of anti-schistosomal activity on the adult stage of the parasite, 7-wk old worms were transferred into 48 well tissue culture plates (1–3 worm pairs/well, in duplicate). […] DMSO (0.5%) and praziquantel (10 μM in 0.5% DMSO) were also included as negative and positive control treatments. Treated adult worms were incubated for 72 h in a humidified environment containing 5% CO2 at 37 °C. Parasite motility after compound treatment was assessed by a digital image processing-based system (WormassayGP2), modified after Wormassay. Following compound-parasite co-incubation, eggs were collected, fixed in formalin (10% v/v formaldehyde) and enumerated aiming to collect further information on any compound-induced effects on parasite fecundity and IVLE production.

S. mansoni adult worms [3] = assay: In vitro laid egg (IVLE) production by S. mansoni adult worm pairs, 72 h; type: cell-based, Schistosoma mansoni
Protocol: as §3

[4] = HepG2 MTT cytotoxicity assay; conditions: human, HepG2 cells
Protocol: as §2

[5] = tested on: Adult S. haematobium worms; assay: In vitro screening of S. haematobium adults at 100 nM (WormAssay motility, descriptors, severity score); type: cell-based, Schistosoma haematobium
Protocol: (§4) For each species, parasite recovery involved reverse perfusion of the hepatic portal and mesenteric system using DMEM (Fisher Scientific). Parasites were washed six times with Basch 169 medium supplemented with 100 U/ml penicillin and 100 μg/ml streptomycin before manually distributing approximately 5 males per well (on occasion 1 or 2 females might also be present) of a 24-well plate (Corning Costar 3524). […] The next morning, a final concentration of 100 nM compound (in 1 μL DMSO) was added to each well and the final volume made up to 2 ml with Basch 169 medium supplemented with antibiotics and FBS. Each compound was tested in triplicate (except for some instances tested in duplicate). […] The phenotypic characterisation of compound effects focused on male worms due to the greater range of their motility characteristics that include flexing, bending, stretching, sucker walking and adherence, compared to the more sedentary female worms. In addition to descriptors, WormAssay, as adapted for the schistosome, was used to measure average worm motility per well [72, 73].

[6] = tested on: adult S. japonicum male worms; assay: In vitro screening of S. japonicum adults at 100 nM (WormAssay motility, descriptors, severity score); type: cell-based, Schistosoma japonicum
Protocol: as §4

[7] = Schistosoma mansoni, 72 h, Table 1, 72 h, two dose response titrations (0.313–10 μM), 95% CI in brackets, read-out: Activity on schistosomula (EC50, μM - 72 h) Motility
[8] = Schistosoma mansoni, 72 h, Table 1, 72 h, two dose response titrations (0.313–10 μM), 95% CI in brackets, read-out: Activity on schistosomula (EC50, μM - 72 h) Phenotype
[9] = Schistosoma mansoni, 72 h, Table 1, mean of phenotype and motility EC50, 72 h, read-out: Activity on schistosomula (EC50, μM - 72 h) Average
[10] = Table 4, Series A, read-out: Anti-schistosomal activity EC50 Adult (nM) Motility
[11] = Table 2, 72 h, titrations 0.0095–5 μM, WormassayGP2, read-out: Activity on adult worms (EC50, μM - 72 h) Motility
[12] = Schistosoma mansoni, 72 h, Table 2, average of phenotype and motility EC50, 72 h, read-out: Activity on schistosomula (EC50, μM - 72 h) Average
[13] = Schistosoma mansoni, 72 h, Table 2, motility, 72 h, three replicate titrations (0.313–10 μM), read-out: Activity on schistosomula (EC50, μM - 72 h) M
[14] = Schistosoma mansoni, 72 h, Table 2, phenotype, 72 h, three replicate titrations (0.313–10 μM), read-out: Activity on schistosomula (EC50, μM - 72 h) P
[15] = Schistosoma mansoni, Table 4, Series A, read-out: Anti-schistosomal activity EC50 Schistosomula (μM) Motility
[16] = Schistosoma mansoni, Table 4, Series A, read-out: Anti-schistosomal activity EC50 Schistosomula (μM) Phenotype

CC(=O)OC[C@H]1O[C@@H]([S-])[C@H](OC(C)=O)[C@@H](OC(C)=O)[C@@H]1OC(C)=O.CCP(CC)CC.[Au+] [AUR, Auranofin, reference compound]
PI pos [1]: 0% | CC50 (HepG2 cells; read-out: HepG2 cells (CC50, μM) 24 h, 24 h co-incubation): 5.07 µM | CC50 (HepG2 cells; read-out: HepG2 cells (CC50, μM) 72 h, 72 h co-incubation): 2.94 µM | EC50 (S. mansoni schistosomula; Table 1, 72 h, two dose response titrations (0.313–10 μM), 95% CI in brackets, read-out: Activity on schistosomula (EC50, μM - 72 h) Motility): 0.45 µM | EC50 (S. mansoni schistosomula; Table 1, mean of phenotype and motility EC50, 72 h, read-out: Activity on schistosomula (EC50, μM - 72 h) Average): 0.41 µM | EC50 (S. mansoni schistosomula; Table 2, average of phenotype and motility EC50, 72 h, read-out: Activity on schistosomula (EC50, μM - 72 h) Average): 0.41 µM | EC50 (S. mansoni schistosomula; Table 2, motility, 72 h, three replicate titrations (0.313–10 μM), read-out: Activity on schistosomula (EC50, μM - 72 h) M): 0.45 µM | EC50 (S. mansoni schistosomula; Table 2, phenotype, 72 h, three replicate titrations (0.313–10 μM), read-out: Activity on schistosomula (EC50, μM - 72 h) P): 0.37 µM

c1ccc(/N=c2\sc3ccccc3s\c2=N\c2ccccc2)cc1 [Compound 1]
Adult worm motility at 6.25 μM (S. mansoni adult worms [2]; 6.25 μM, 72 h): normal motility | Effect on adult male and female worm pairs at 50 and 25 μM (S. mansoni adult worms [2]; 50 and 25 μM, 72 h): lethal effect | Activity on schistosomula in the primary screen at 10 μM (S. mansoni schistosomula; 10 μM, 72 h): hit | Activity on schistosomula in the primary screen at 50 μM (S. mansoni schistosomula; 50 μM, 72 h): hit | EC50 (S. mansoni schistosomula; [7]): 4.47 µM | EC50 (S. mansoni schistosomula; [8]): 4.72 µM | EC50 (S. mansoni schistosomula; [9]): 4.59 µM | EC50 (S. mansoni schistosomula; Schistosoma mansoni, Fig. S3, average schistosomula EC50, read-out: EC50 (Fig. S3, anti-schistosomula activity)): 4.41 µM | Concentration down to which activity on schistosomula was retained (S. mansoni schistosomula; dose-response titration, 72 h): 5 µM | Concentration up until which production of in vitro laid eggs (IVLEs) was significantly inhibited (S. mansoni adult worms [3]; titration 50–6.25 μM): 12.5 µM

O=[N+]([O-])c1ccc2nc(-c3ccc(F)cc3)c(-c3ccc(F)cc3)nc2c1 [Compound 21]
CC50 at 24 h [4]: 6000 to 20000 nM | EC50 (S. mansoni schistosomula; [7]): > 50 µM | EC50 (S. mansoni schistosomula; [8]): > 50 µM | Effect on phenotype and motility of S. mansoni schistosomula (S. mansoni schistosomula; primary tested concentrations 10 and 50 μM, 72 h): did not have any effect

O=[N+]([O-])c1ccc2nc(Nc3cccc(C(F)(F)F)c3)c(Nc3cccc(C(F)(F)F)c3)nc2c1 [Compound 30, 6-nitro-N2, N3-bis(3-(trifluoromethyl)phenyl)quinoxaline-2,3-diamine]
Effect on S. haematobium adult worms ([5]; 5, 24, 48 and 72 h): relatively mild effects | SEVERITY SCORES 5 h ([5]; S. haematobium, 5 h, max = 4, one line per replicate): 0 | SEVERITY SCORES 24 h ([5]; S. haematobium, 24 h, max = 4, one line per replicate): 0 | SEVERITY SCORES 48 h ([5]; S. haematobium, 48 h, max = 4, one line per replicate): 1 and 2 | DESCRIPTORS 48 h ([5]; S. haematobium, 48 h, one line per replicate): S-unc, on sides | SEVERITY SCORES 72 h ([5]; S. haematobium, 72 h, max = 4, one line per replicate): 2 | DESCRIPTORS 72 h ([5]; S. haematobium, 72 h, one line per replicate): S-unc, on sides | Selectivity Index (SI) Adult worms (HepG2 cells): 348 and 347.59 | Selectivity Index (SI) Somula (HepG2 cells): 2.36 | EC50 (S. mansoni adult worms [2]; [10]): 2.59 nM | EC50 (S. mansoni adult worms [2]; [11]): 2.59 nM | EC50 (S. mansoni schistosomula; [12]): 0.38 µM | EC50 (S. mansoni schistosomula; [13]): 0.43 µM | EC50 (S. mansoni schistosomula; [14]): 0.34 µM | EC50 (S. mansoni schistosomula; [15]): 0.43 µM | EC50 (S. mansoni schistosomula; [16]): 0.34 µM | Effect on S. japonicum adult male worms ([6]; 5, 24, 48 and 72 h): decreased motility starting at 48 h | SEVERITY SCORES 5 h ([6]; S. japonicum, 5 h, max = 4, one line per replicate): 0 | SEVERITY SCORES 24 h ([6]; S. japonicum, 24 h, max = 4, one line per replicate): 0 | SEVERITY SCORES 48 h ([6]; S. japonicum, 48 h, max = 4, one line per replicate): 2 and 1 | DESCRIPTORS 48 h ([6]; S. japonicum, 48 h, one line per replicate): S, on sides and S | SEVERITY SCORES 72 h ([6]; S. japonicum, 72 h, max = 4, one line per replicate): 2 and 1 | DESCRIPTORS 72 h ([6]; S. japonicum, 72 h, one line per replicate): S, on sides and S+

O=[N+]([O-])c1ccc2nc(Nc3cc(F)cc(C(F)(F)F)c3)c(Nc3cc(F)cc(C(F)(F)F)c3)nc2c1 [Compound 34, N2, N3-bis(3-fluoro-5-(trifluoromethyl)phenyl)-6-nitroquinoxaline-2,3-diamine]
EC50 (S. mansoni adult worms [2]; [10]): 6.47 nM | EC50 (S. mansoni adult worms [2]; [11]): 6.47 nM | EC50 (S. mansoni schistosomula; [12]): 0.4 µM | EC50 (S. mansoni schistosomula; [13]): 0.43 µM | EC50 (S. mansoni schistosomula; [14]): 0.37 µM | EC50 (S. mansoni schistosomula; [15]): 0.43 µM | EC50 (S. mansoni schistosomula; [16]): 0.37 µM | Effect on IVLE production compared with PZQ (S. mansoni adult worms [3]; 0.0024–10 μM): more potent than PZQ

O=C(C1CCCCC1)N1CC(=O)N2CCc3ccccc3C2C1 (stereo not drawn) [PZQ, praziquantel, reference compound]
PI pos [1]: 100% | Selectivity Index (SI) Adult worms (HepG2 cells): 945.31 | Selectivity Index (SI) Somula (HepG2 cells): 100.05 | EC50 (S. mansoni adult worms [2]; [11]): 107 nM | EC50 (S. mansoni schistosomula; [7]): 0.88 µM | EC50 (S. mansoni schistosomula; [8]): 1.14 µM | EC50 (S. mansoni schistosomula; [9]): 1.01 µM | EC50 (S. mansoni schistosomula; [12]): 1.01 µM | EC50 (S. mansoni schistosomula; [13]): 0.88 µM | EC50 (S. mansoni schistosomula; [14]): 1.14 µM
